The values that follow come from PMC5940854, “Nitrothiophene carboxamides, a novel narrow spectrum antibacterial series: Mechanism of action and Efficacy” (Scientific Reports, 2018).

Experiment [1] has as its system wild-type E. coli CGSC#7636 (BW25113). Nature of the experiment: MIC, wild-type E. coli. Type of experiment: cell-based. Particulars: for MIC WT: E. coli WT BW25113; for MIC: Escherichia coli. On the procedure:
(§1) The inoculum used for all the experiments is derived from a single seed lot that is maintained as glycerol stocks at −80 °C and are sub cultured on LB plate for isolated colonies. Single colony of each strain is grown in M9 medium. All test compound stocks and dilutions are prepared in DMSO. Serial two-fold dilutions of compounds are prepared separately, with the concentrations ranging from 2 mg/mL to 0.015 mg/mL. To 150 µl (3–7 × 10^5 CFU/ml) of bacterial culture in 96 well microtitre plates, 3 μL compound from each of the dilutions is added to respective wells to obtain final concentrations ranging from 40 µg/mL to 0.3 µg/mL of the test compounds. Media control, culture control and appropriate reference drug controls are included. […] Growth is monitored by checking absorbance at 600 nm (A600). […] The samples from MIC and above concentrations are plated for MBC (Minimum Bactericidal Concentration). The samples are diluted 1:10 and plated on LB agar plates. […] The killing kinetics is determined by enumerating survivors at various time points following compound exposure. E. coli cells (~10^7 CFU/ml; A600 of 0.1) are treated with various concentrations (40 µg/mL to 0.3 µg/mL) of compounds in a 96-well microtitre plate. At various time intervals (0 to 8 h), 30 μl volumes of treated cultures are serially diluted and plated on LB agar plates. […] Data is expressed as the log10 CFU for each drug treatment.

Another experiment has as its system E. coli ∆acrB JW0451-2. As to the kind of experiment: MIC, E. coli ∆acrB. The experiment is classed as cell-based. Particulars: for MIC acrB: E. coli ∆acrB; for MIC: Escherichia coli, read-out: MIC acrB. Here is the method: as §1
For a further experiment, the system named is E. coli ∆tolC JW5503-1. Nature of the experiment: MIC, E. coli ∆tolC. The experiment is classed as cell-based. Particulars: for MIC tolC: E. coli ∆tolC; for MIC: Escherichia coli, read-out: MIC tolC. On the procedure: as §1
In the next experiment the target is T1, NfsB (Escherichia coli, UniProt P38489).
T1 construct: His-tag; made in house; host or cells: E. coli BL21(DE3), pET28a (pET-nfsB)
Nature of the experiment: Nitroreductase activity assay, NfsB. Type of experiment: biochemical, E. coli. Here is the method:
(§2) Enzyme reducing each of the substrates are measured by monitoring the concomitant oxidation of NADPH by NfsA and NADH by NfsB in a fluorescence based assay. The reduction in fluorescence due to the NADH oxidation (excitation 350 nm, emission 460 nm) and NADPH oxidation (excitation 340 nm, emission 485 nm) is recorded using a TECAN Infinite M200Pro spectrophotometer, in half area solid black microtiter plates. This change in fluorescence directly corelates to the reduction of the nitro-compounds in the reaction. The NfsA assays is performed by initiating the reactions with 40 μM NADPH and 10 nM NfsA in 50 mM Tris-HCl (pH 7.4), 5 mM EDTA against 20 μM substrate (5 μl of compounds/substrate dissolved in 100% DMSO) in a total reaction volume of 100 μl at 25 °C. Similarly, the NfsB assay is also performed by initiating the reactions with 40 μM NADH and 70 nM NfsB in 50 mM Tris-HCl (pH 7.4), 5 mM EDTA against 20 μM substrate in a total reaction volume of 100 μl. […] All reactions are performed in replicates of two or more and the fluorescence measurements are made at 10 second intervals for 5–10 minutes.
(§3) Low solubility of the compounds/substrates under the NfsA and NfsB assay conditions precluded determination of their Km. […] The relative fluorescence units (RFU) obtained due to NADPH (excitation 340 nm, emission 485 nm) or NADH (excitation 350 nm, emission 460 nm) oxidation of the first 90 sec reaction is used to compute the slopes using linear regression analysis on GraphPad Prism. Appropriate blank reactions are included to account for background fluorescence/quenching from each of the components such as DMSO, the compound itself and auto-oxidation of NADPH or NADH. Activity of NfsB with a known substrate such as nitrofurantoin is used as a benchmark to plot the relative activities with all the test compounds.

The test system of the next experiment is E. coli ∆nfsB. Nature of the experiment: microbe, parasite or virus in culture. The experiment is classed as cell-based. The following applies: Escherichia coli, read-out: MIC ∆nfsB. Here is the method:
(§4) To assess the biological relevance of the interacting protein and establish the link between nitroreductases to the antibacterial activity of NTC compounds, single (ΔnfsA or ΔnfsB) and double knockouts (ΔnfsA & ΔnfsB) of nitroreductases were generated by phage transduction using strains from the Keio collection.
as §1
The wild-type E. coli strain BW25113 and the entire Keio collection of knockouts[22] is maintained as glycerol stocks at −80 °C in 96-well deep well blocks. […] These are sub cultured in 150 µl of LB broth (Kanamycin 50 ug/ml, except for the wild-type strain) in 96 well microtiter plates and then adapted into M9 medium with 0.4% glucose. […] Cultures of single gene knockouts that show an altered MIC as compared to that of the wild type are scored as ‘Hits’.

For another experiment, the system named is E. coli ∆nfsA + ∆nfsB. Nature of the experiment: microbe, parasite or virus in culture. The experiment is classed as cell-based. Here is the method: as §4, §1
For the next experiment, the system named is E. coli ∆nfsA. As to the kind of experiment: microbe, parasite or virus in culture. Type of experiment: cell-based. The following applies: Escherichia coli, read-out: MIC ∆nfsA. Here is the method: as §4, §1
The next experiment addresses T2, NfsA (Escherichia coli, UniProt P17117).
T2 construct: His-tag; made in house; host or cells: E. coli BL21(DE3), pET28a (pET-nfsA)
Nature of the experiment: Nitroreductase activity assay, NfsA. The experiment is classed as biochemical, E. coli. On the procedure:
as §2, §3

Setting [2] is: BW25113, E. coli WT BW25113, read-out: MIC WT.

In brackets after ≈: the same amount, converted by molar mass. Where two headings read alike, the source gives them in different places.

T1 sequence (P38489 whole entry): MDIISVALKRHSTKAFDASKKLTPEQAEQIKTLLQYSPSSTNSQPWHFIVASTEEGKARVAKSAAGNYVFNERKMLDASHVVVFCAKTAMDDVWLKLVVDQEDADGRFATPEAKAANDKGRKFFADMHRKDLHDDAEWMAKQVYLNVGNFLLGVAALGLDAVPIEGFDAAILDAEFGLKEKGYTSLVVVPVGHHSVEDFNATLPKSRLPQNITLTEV
T2 sequence (P17117 whole entry): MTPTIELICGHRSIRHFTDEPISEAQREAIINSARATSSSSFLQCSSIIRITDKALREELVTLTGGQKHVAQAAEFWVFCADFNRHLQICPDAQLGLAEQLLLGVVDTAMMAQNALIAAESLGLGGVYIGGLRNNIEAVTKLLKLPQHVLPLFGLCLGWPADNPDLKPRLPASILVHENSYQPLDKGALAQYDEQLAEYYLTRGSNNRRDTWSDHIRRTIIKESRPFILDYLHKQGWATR

As for “5-Nitro-N-(4-(6-(trifluoromethyl)pyridin-3-yl)thiazol-2-yl)thiophene-2-carboxamide [compound 17]”, the “MIC WT” value in experiment [1] was above 40 µg/mL. For the same compound, the “MIC acrB” value against E. coli ∆acrB JW0451-2 was found to be 10 µg/mL. In the experiment with E. coli ∆tolC JW5503-1, the “MIC tolC” value worked out at 10 µg/mL.
Turning to `Cc1sc(NC(=O)c2ccc(C(F)(F)F)s2)nc1-c1ccccc1` [compound 8, N-(5-Methyl-4-phenylthiazol-2-yl)-5-(trifluoromethyl) thiophene-2-carboxamide], the MIC (in experiment [1] (setting [2]); with E. coli ∆acrB JW0451-2; with E. coli ∆tolC JW5503-1) was above 40 µg/mL in each case.
Take `Cc1sc(NC(=O)c2ccc([N+](=O)[O-])s2)nc1-c1ccc(F)cc1` [compound 9, N-(4-(4-Fluorophenyl)-5-methylthiazol-2-yl)-5-nitrothiophene-2-carboxamide]: the MIC was above 40 µg/mL in experiment [1] (setting [2]), 0.6 µg/mL (≈ 1.65 µM) in the experiment on E. coli ∆acrB JW0451-2 and 0.6 µg/mL (≈ 1.65 µM) with E. coli ∆tolC JW5503-1.
On to `CN(C)Cc1sc(NC(=O)c2ccc([N+](=O)[O-])s2)nc1-c1ccc(F)cc1` [compound 10, N-(5-((dimethylamino)methyl)-4-(4-fluorophenyl)thiazol-2-yl)-5-nitro thiophene-2-carboxamide], for which the figures for the MIC (in experiment [1] (setting [2]); with E. coli ∆acrB JW0451-2; in the experiment on E. coli ∆tolC JW5503-1) were above 40 µg/mL, 2.5 µg/mL (≈ 6.15 µM) and 2.5 µg/mL (≈ 6.15 µM), respectively. Further, in the experiment on E. coli ∆tolC JW5503-1 (compared to 9), the “fold change of MIC in ∆tolC” value is listed as “four fold”.
For `O=C(Nc1nc(-c2ccc(F)c(F)c2)cs1)c1ccc([N+](=O)[O-])s1` [compound 11, N-(4-(3,4-Difluorophenyl)thiazol-2-yl)-5-nitrothiophene-2-carboxamide], the MIC in experiment [1] (setting [2]) is 0.6 µg/mL (≈ 1.63 µM); with E. coli ∆acrB JW0451-2, 0.3 µg/mL (≈ 0.817 µM); with E. coli ∆tolC JW5503-1, 0.15 µg/mL (≈ 0.408 µM).
For the compound `N#Cc1ccc(-c2csc(NC(=O)c3ccc([N+](=O)[O-])s3)n2)cc1` [compound 14, N-(4-(4-cyanophenyl)thiazol-2-yl)-5-nitrothiophene-2-carboxamide], in experiment [1], the “MIC WT” value was above 40 µg/mL. Also, the MIC in experiment [1] (setting [2]) was above 40 µg/mL; in the experiment on E. coli ∆nfsB, above 40 µg/mL; in the experiment with E. coli ∆acrB JW0451-2, 20 µg/mL (≈ 56.1 µM); in the experiment on E. coli ∆nfsA + ∆nfsB (Escherichia coli, read-out: MIC ∆nfsA + ∆nfsB), above 40 µg/mL; in the experiment with E. coli ∆nfsA, above 40 µg/mL; with E. coli ∆tolC JW5503-1, 20 µg/mL (≈ 56.1 µM). Moreover, the “NfsB activity (rate of compound conversion)” value at NfsB (20 μM compound, 40 μM NADH, 70 nM NfsB, slope of initial velocity) is 1.31 µM/min. The “conversion by NfsB (in words)” value on NfsB (biochemical assay) is listed as “not converted”. In addition, the “antibacterial activity in double knockout (in words)” value in the experiment on E. coli ∆nfsA + ∆nfsB (ΔnfsA and ΔnfsB double knockout strain) is “inactive”. The “fold loss in MIC against ∆tolC” value with E. coli ∆tolC JW5503-1 (compared to compound 12) is given as above 100 fold. Moreover, the “NfsA activity (rate of compound conversion)” value at NfsA (20 μM compound, 40 μM NADPH, 10 nM NfsA, slope of initial velocity) amounted to 0.20 µM/min. The “conversion by NfsA (in words)” value on NfsA (biochemical assay) is on record as “not converted”.
`O=C(Nc1nc(-c2ccc(OC(F)(F)F)cc2)cs1)c1ccc([N+](=O)[O-])s1` [compound 16, 5-Nitro-N-(4-(4-(trifluoromethoxy)phenyl)thiazol-2-yl)thiophene-2-carboxamide]: the MIC in experiment [1] (setting [2]) turned out to be 5 µg/mL (≈ 12 µM); with E. coli ∆acrB JW0451-2 it was 1.25 µg/mL (≈ 3.01 µM); with E. coli ∆tolC JW5503-1 it was 0.3 µg/mL (≈ 0.722 µM).
On the same counts, the results for `Cc1cc(F)ccc1-c1csc(NC(=O)c2ccc([N+](=O)[O-])s2)n1` [compound 18, N-(4-(4-fluoro-2-methylphenyl)thiazol-2-yl)-5-nitrothiophene-2-carboxamide] are 2.5 µg/mL (≈ 6.88 µM), 0.6 µg/mL (≈ 1.65 µM) and 0.3 µg/mL (≈ 0.826 µM).
For the compound `COc1cc(-c2csc(NC(=O)c3ccc([N+](=O)[O-])s3)n2)ccc1F` [compound 19, N-(4-(4-fluoro-3-methoxyphenyl)thiazol-2-yl)-5-nitrothiophene-2-carboxamide], the MIC is 1.25 µg/mL (≈ 3.29 µM) in experiment [1] (setting [2]), 0.3 µg/mL (≈ 0.791 µM) in the experiment on E. coli ∆acrB JW0451-2 and 0.6 µg/mL (≈ 1.58 µM) in the experiment with E. coli ∆tolC JW5503-1.
With `O=C(Nc1nc(-c2ccc(Cl)c(F)c2)cs1)c1ccc([N+](=O)[O-])s1` [compound 21, N-(4-(4-Chloro-3-fluorophenyl)thiazol-2-yl)-5-nitrothiophene-2-carboxamide], the MIC in experiment [1] (BW25113, read-out: MIC WT) amounted to 1.25 µg/mL (≈ 3.26 µM); in the experiment on E. coli ∆acrB JW0451-2 it was 1.25 µg/mL (≈ 3.26 µM); in the experiment with E. coli ∆tolC JW5503-1, 2.5 µg/mL (≈ 6.51 µM).
Take `CCOc1cc(-c2csc(NC(=O)c3ccc([N+](=O)[O-])s3)n2)ccc1Cl` [compound 22, N-(4-(4-chloro-3-ethoxyphenyl)thiazol-2-yl)-5-nitrothiophene-2-carboxamide]: the MIC in experiment [1] (BW25113, read-out: MIC WT) came to 1.25 µg/mL (≈ 3.05 µM); in the experiment on E. coli ∆acrB JW0451-2, 1.25 µg/mL (≈ 3.05 µM); in the experiment with E. coli ∆tolC JW5503-1, 0.6 µg/mL (≈ 1.46 µM).
Consider `COc1cc(-c2csc(NC(=O)c3ccc([N+](=O)[O-])s3)n2)ccc1C(F)(F)F` [compound 23, N-(4-(3-methoxy-4-(trifluoromethyl)phenyl)thiazol-2-yl)-5-nitrothiophene-2-carboxamide], for which the MIC was 2.5 µg/mL (≈ 5.82 µM) in experiment [1] (setting [2]), 2.5 µg/mL (≈ 5.82 µM) in the experiment with E. coli ∆acrB JW0451-2 and 1.25 µg/mL (≈ 2.91 µM) in the experiment with E. coli ∆tolC JW5503-1.
In the case of `O=C(Nc1nc(-c2cc(F)cc(F)c2)cs1)c1ccc([N+](=O)[O-])s1` [compound 24, N-(4-(3,5-difluorophenyl)thiazol-2-yl)-5-nitrothiophene-2-carboxamide], the MIC in experiment [1] (setting [2]) is above 20 µg/mL; in the experiment on E. coli ∆acrB JW0451-2 it was 0.3 µg/mL (≈ 0.817 µM); in the experiment with E. coli ∆tolC JW5503-1 it was 0.3 µg/mL (≈ 0.817 µM).
Consider “N-(4-(3-Fluoro-4-methylphenyl)thiazol-2-yl)-5-nitrothiophene-2-carboxamide [compound 13]”, for which the “MIC WT” value in experiment [1] stood at 1.25 µg/mL. Besides, the “MIC acrB” value against E. coli ∆acrB JW0451-2 came to 0.3 µg/mL. The “MIC tolC” value with E. coli ∆tolC JW5503-1 worked out at 0.3 µg/mL.
